# Experimental data published in article PMC9927515, “Discovery and Mechanism of Action of a Novel Antimicrobial Peptide from an Earthworm” (Microbiology Spectrum, 2023).
# Where no end group is shown, it is not given here.
# Key:
# sheep blood = type: cell-based
# Protocol: Sterile defibrinated sheep blood (Titan, Shanghai, China) was kept at 4°C and was used within 3 days after being received. Hemolysis assessment was conducted following the method of Liu et al. ([34]). The hemolysis rate was calculated using the following formula: hemolysis rate = [([…] sample - […] blank)/([…] 0.2% Triton X-100 - […] blank)] × 100.
# [1] = Sensitivity to temperature (residual antibacterial rate); type: physicochemical; conditions: water bath 50-100°C for 1 h; residual antibacterial rate by MIC method, OD600; especially in E. coli; Fig. S2a
# Protocol: (§1) The AMP was treated for 1 h with a water bath heated at 50, 60, 70, 80, 90, or 100°C to evaluate temperature sensitivity, while the pH was adjusted to 2, 4, 6, 8, 10, and 12 and then back to 7.4 after 1 h to evaluate pH sensitivity. The changes in antibacterial activity were determined using the MIC method, as follows: antibacterial rate = [(OD600 positive control − OD600 sample)/(OD600 positive control − OD600 negative control)] × 100, where OD600 is the optical density at 600 nm.
# (§2) Table S1 Sequences of 21 synthetic peptides
# (§3) Table S3 Sequences and MICs of derivatives of EWAMP.15
# (§4) Table S4 Sequences and MICs of Alanine scanning derivatives
# (§5) Table S5 Sequences and MICs of Arg and Lys derivatives
# (§6) Table S6 Summary of membrane thickness
# (§7) Table S7 Primers used in RT-PCR
# (§8) Fig. S1 MICs of EWAMP.15 12 -24 derivatives that were replaced in different sites. In
# (§9) the X-axis, the number and the letter represent the replaced site and the amino acid residue.
# (§10) Fig. S2 Physical stability and in vitro toxicity of EWAMP-R. (a) Residual antibacterial
# (§11) rates after water heating for 1 h showing the temperature stability. (b) Residual antibacterial
# (§12) rates after acid or alkaline solution treatment showing the pH stability. (c) Hemolytic
# (§13) and negative controls. (d) Cell survival rate of LO2 after EWAMP-R treatment. All the cell
# (§14) survival rate was above 95%.
# (§15) Fig. S3 Root-mean-squared deviation (RMSD) and root-mean-squared fluctuation […]
# [2] = Sensitivity to pH (residual antibacterial rate); type: physicochemical; conditions: pH adjusted to 2-12, back to 7.4 after 1 h; residual antibacterial rate by MIC method, OD600; especially in E. coli; Fig. S2b
# Protocol: as §1, §2, §3, §4, §5, §6, §7, §8, §9, §10, §11, §12, §13, §14, §15
sequence,measurement,setting,value
RIWWSGGWRRWRW [EWAMP-R],hemolytic activity: absorbance in treatment groups versus negative controls,sheep blood,not significantly different
same,stability of antibacterial activity under temperature changes,[1],comparative stability
same,stability of antibacterial activity under pH changes,[2],comparative stability
